Measurements published in ChEMBL document CHEMBL1158636, “Discovery of a novel sulfonamide-pyrazolopiperidine series as potent and efficacious gamma-secretase inhibitors (Part II)” (Bioorg Med Chem Lett, 2010).
pIC50: −log10 of the molar value.

Key:
[1] = Inhibition of gamma-secretase-mediated APP cleavage assessed as amyloid beta40 level after 2 hrs by ELISA
[2] = molecular target: Gamma-secretase (Homo sapiens) (UniProt Q96BI3+Q9NZ42+Q8WW43+P49768+Q92542+P49810); test: Inhibition of gamma-secretase-mediated APP cleavage in human SNC cells by ELISA; type: cell-based
Gamma-secretase = test: Inhibition of gamma-secretase-mediated notch cleavage in human SNC cells by ELISA; type: cell-based
[3] = Oxidative metabolic stability in human liver microsomes assessed as compound remaining at 2 uM after 30 mins in presence of 1 mM UDPGA; type: ADME, Microsome; details: liver microsomes, read-out: Stability
[4] = Oxidative metabolic stability in human liver microsomes assessed as compound remaining at 1 uM after 30 mins in presence of 1 mM NADPH; type: ADME, Microsome; details: liver microsomes, read-out: Stability
[5] = Inhibition of gamma-secretase-mediated notch cleavage after 2 hrs by ELISA

| SMILES | pIC50 [1] | ED50 [2] | pIC50 (Gamma-secretase) | remaining at 0.5 h, 2 µM [3] | remaining at 0.5 h, 1 µM [4] | pIC50 [5] |
| --- | --- | --- | --- | --- | --- | --- |
| CC[C@@H]1C(=O)c2[nH]ncc2[C@H](CC)N1S(=O)(=O)c1ccc(Cl)cc1 (stereo in doubt) | 9.52 | 6 nM | 6.26 | 77% | 6% |  |
| CC1(C)C(=O)c2[nH]ncc2C(C2CC2)N1S(=O)(=O)c1ccc(C(F)(F)F)cc1 (racemic) | 8.14 | 60 nM | 5.58 | 67% | 68% | 6.57 |
| CC(C)(C)C1C(=O)c2[nH]ncc2C(C2CC2)N1S(=O)(=O)c1ccc(C(F)(F)F)nc1 (stereo in doubt; 3t) |  | 0.6 nM |  |  |  |  |
| CC[C@@H]1c2cn[nH]c2C(=O)[C@H](CC)N1S(=O)(=O)c1ccc(C(F)(F)F)nc1 (relative stereo) | 9.10 | 21 nM | 5.63 | 83% | 57% | 7.44 |
| CC1C(=O)c2[nH]ncc2C(C2CC2)N1S(=O)(=O)c1ccc(C(F)(F)F)cc1 (configuration not stated) | 9.30 | 2340 nM | < 4.40 | 67% | 62% | 7.92 |
| O=C1c2[nH]ncc2C(C2CC2)N(S(=O)(=O)c2ccc(Cl)s2)C12CC2 (racemic) | 8.70 | 7 nM | 6.24 |  | 1% | 7.74 |
| O=C1CN(S(=O)(=O)c2ccc(C(F)(F)F)cc2)[C@H](C2CC2)c2cn[nH]c21 | 8.04 | > 10000 nM | < 4.40 |  |  | 6.45 |
| O=C1CN(S(=O)(=O)c2ccc(C(F)(F)F)cc2)C(C(F)(F)F)c2cn[nH]c21 (configuration not stated) | 8.59 | > 10000 nM | < 4.40 | 6% | 1% | 7.29 |
| CC(C)[C@H]1C(=O)c2[nH]ncc2[C@@H](C(C)C)N1S(=O)(=O)c1ccc(C(F)(F)F)cc1 (relative stereo) | 9.30 | 33 nM | 5.64 | 82% | 0% | 7.85 |
| O=S(=O)(c1ccc(C(F)(F)F)cc1)N1CC(F)(F)c2[nH]ncc2C1C(F)(F)F (racemic) | 9.05 | 4 nM | 6.39 | 35% | 84% | 8.00 |
| CC[C@@H]1c2cn[nH]c2C(=O)[C@H](CC)N1S(=O)(=O)c1ccc(Cl)cc1 (stereo in doubt) | 10.00 | 5 nM | 6.54 | 65% | 10% | 8.30 |
| CC(C)(C)C1C(=O)c2[nH]ncc2C(C2CC2)N1S(=O)(=O)c1ccc(C(F)(F)F)nc1 (stereo in doubt; 3t) [6-TERT-BUTYL-4-CYCLOPROPYL-5-(6-(TRIFLUOROMETHYL)PYRIDIN-3-YLSULFONYL)-5,6-DIHYDRO-1H-PYRAZOLO[4,3-C]PYRIDIN-7(4H)-ONE (STRUCTURAL MIX)] | 9.70 |  | 7.15 | 66% | 8% | 8.22 |
| CC(C)C1c2cn[nH]c2C(F)(F)CN1S(=O)(=O)c1ccc(Cl)cc1 (racemic) | 9.15 | 11 nM | 6.24 | 42% | 2% | 7.92 |
| O=C1c2[nH]ncc2C(C2CC2)N(S(=O)(=O)c2ccc(C(F)(F)F)nc2)C1c1cc(F)cc(F)c1 (racemic) | 9.15 | > 1000 nM | 5.40 |  | 9% | 7.77 |
| CCC1c2cn[nH]c2C(=O)CN1S(=O)(=O)c1ccc(C(F)(F)F)cc1 (configuration not stated) | 8.19 | > 10000 nM | < 4.40 |  | 19% |  |
| O=C1c2[nH]ncc2C(C2CC2)N(S(=O)(=O)c2ccc(C(F)(F)F)cc2)C12CCCC2 (racemic) | 9.40 | 2 nM | 6.63 |  | 3% | 8.10 |
| O=C1c2[nH]ncc2C(C2CC2)N(S(=O)(=O)c2ccc(C(F)(F)F)nc2)C1C1CCOCC1 (racemic) | 9.00 | 1 nM | 6.73 | 64% | 57% | 7.72 |
| C[C@@H]1C(=O)c2[nH]ncc2[C@H](C)N1S(=O)(=O)c1ccc(C(F)(F)F)nc1 (stereo in doubt) | 7.04 | > 10000 nM | < 4.40 |  | 62% | 5.64 |
| CC(C)(C)C1C(=O)c2[nH]ncc2C(C2CC2)N1S(=O)(=O)c1ccc(C(F)(F)F)nc1 (stereo in doubt; 3u) |  | 16 nM |  |  |  |  |
| COC[C@H]1C(=O)c2[nH]ncc2[C@@H](C2CC2)N1S(=O)(=O)c1ccc(C(F)(F)F)cc1 (relative stereo) | 8.49 | > 10000 nM | < 4.40 |  | 14% | 6.90 |

The next lines start with the values.

| pIC50 [1] | ED50 [2] | pIC50 (Gamma-secretase) | remaining at 0.5 h, 2 µM [3] | remaining at 0.5 h, 1 µM [4] | pIC50 [5] | SMILES |
| --- | --- | --- | --- | --- | --- | --- |
| 8.72 | 11 nM | 6.00 | 84% | 85% | 7.16 | O=C1c2[nH]ncc2C(C2CC2)N(S(=O)(=O)c2ccc(C(F)(F)F)cc2)C12CC2 (racemic) |
|  | 26 nM |  |  |  |  | O=C1c2[nH]ncc2C(C2CC2)N(S(=O)(=O)c2ccc(C(F)(F)F)cn2)C12CC2 (stereo in doubt; 16i) |
|  | 0.3 nM |  |  |  |  | O=S(=O)(c1ccc(C(F)(F)F)nc1)N1C(C2CC2)c2cn[nH]c2C(F)(F)C12CC2 (stereo in doubt; 17b) |
|  | 7 nM |  |  |  |  | O=C1c2[nH]ncc2C(C2CC2)N(S(=O)(=O)c2ccc(C(F)(F)F)nc2)C12CC2 (racemic) |
| 9.10 | 3 nM | 6.52 | 67% | 71% | 7.33 | O=S(=O)(c1ccc(C(F)(F)F)nc1)N1[C@@H](C2CC2)C(F)(F)c2[nH]ncc2[C@H]1C1CC1 (stereo in doubt) |
| 9.52 | 130 nM | 5.17 | 75% | 77% | 8.00 | O=C1c2[nH]ncc2[C@@H](C2CC2)N(S(=O)(=O)c2ccc(C(F)(F)F)nc2)[C@H]1C1CC1 (relative stereo) |
| 8.52 | 374 nM | 4.60 | 87% | 21% | 7.18 | O=C1c2[nH]ncc2[C@@H](C2CC2)N(S(=O)(=O)c2ccc(C(F)(F)F)nc2)[C@@H]1C1CC1 (relative stereo) |
| 8.92 | 6 nM | 6.45 | 59% | 79% | 7.70 | C[C@@H]1N(S(=O)(=O)c2ccc(C(F)(F)F)nc2)[C@H](C2CC2)c2cn[nH]c2C1(F)F (relative stereo) |
| 9.00 | 7 nM | 6.38 | 46% | 75% | 7.74 | C[C@@H]1N(S(=O)(=O)c2ccc(C(F)(F)F)cc2)[C@H](C2CC2)c2cn[nH]c2C1(F)F (relative stereo) |
| 8.74 |  | 6.16 | 91% | 86% | 7.46 | O=C1c2[nH]ncc2C(C2CC2)N(S(=O)(=O)c2ccc(C(F)(F)F)nc2)C12CC2 (racemic) [4'-CYCLO PROPYL-5'-(6-(TRIFLUORO METHYL)PYRIDIN-3-YL SULFONYL)-4',5'-DIHYDROSPIRO[CYCLOPROPANE-1,6'-PYRAZOLO[4,3-C]PYRIDIN]-7'(1'H)-ONE (ENANTIOMERIC MIX)] |
|  | 86 nM |  |  |  |  | O=S(=O)(c1ccc(C(F)(F)F)nc1)N1C(C2CC2)c2cn[nH]c2C(F)(F)C12CC2 (stereo in doubt; 17c) |
|  | 2680 nM |  |  |  |  | O=C1c2[nH]ncc2C(C2CC2)N(S(=O)(=O)c2ccc(C(F)(F)F)nc2)C12CC2 (stereo in doubt; 16e) |
|  | 4 nM |  |  |  |  | O=C1c2[nH]ncc2C(C2CC2)N(S(=O)(=O)c2ccc(C(F)(F)F)nc2)C12CC2 (stereo in doubt; 16f) |
| 8.82 | 6 nM | 6.11 | 64% | 76% | 7.38 | O=S(=O)(c1ccc(C(F)(F)F)cc1)N1C(C2CC2)c2cn[nH]c2C(F)(F)C1C1CC1 (configuration not stated) |
|  | 87 nM |  |  |  |  | O=C1c2[nH]ncc2C(C2CC2)N(S(=O)(=O)c2ccc(C(F)(F)F)cn2)C12CC2 (racemic) |
| 8.74 | 6 nM | 6.52 | 66% | 22% | 7.30 | CC[C@@H]1c2cn[nH]c2C(F)(F)[C@H](CC)N1S(=O)(=O)c1ccc(C(F)(F)F)nc1 (relative stereo) |
| 9.52 | 0.5 nM | 7.47 | 61% | 53% | 8.52 | O=S(=O)(c1ccc(C(F)(F)F)nc1)N1[C@@H](C2CC2)c2cn[nH]c2C(F)(F)[C@@H]1C1CC1 (stereo in doubt) |
|  | 1850 nM |  |  |  |  | O=C1c2[nH]ncc2C(C2CC2)N(S(=O)(=O)c2ccc(C(F)(F)F)cn2)C12CC2 (stereo in doubt; 16h) |
|  | 0.5 nM |  |  |  |  | O=S(=O)(c1ccc(C(F)(F)F)nc1)N1C(C2CC2)c2cn[nH]c2C(F)(F)C12CC2 (racemic) |
| 7.62 |  | 5.21 | 89% | 76% | 6.30 | O=C1c2[nH]ncc2C(C2CC2)N(S(=O)(=O)c2ccc(C(F)(F)F)cn2)C12CC2 (racemic) [4'-CYCLOPROPYL-5'-(5-(TRIFLUORO METHYL)PYRIDIN-2-YL SULFONYL)-4',5'-DIHYDROSPIRO[CYCLOPROPANE-1,6'-PYRAZOLO[4,3-C]PYRIDIN]-7'(1'H)-ONE (ENANTIOMERIC MIX)] |
